Several values for one entry are separate records, joined by “and”; a condition that tells them apart may be missing. Identical values can stand only once. Like-named read-outs stand apart in the source and are kept apart here. Peptide text beside a SMILES is read from it. * marks the point of attachment. βNA = c1ccc2cc(N*)ccc2c1
Legend:
[1] = Cytotoxicity, AlamarBlue method; type: cell-based, human; conditions: human
Description: (§1) The blood was collected from healthy donors and the peripheral blood mononuclear cells were isolated by Ficoll-Paque Plus (GE Healthcare, Freiburg, Germany) density gradient centrifugation as previously described ([Machado et al., 2016]). […] Fresh medium was added at day 4 post isolation. The effect of the compounds on human monocyte-derived macrophages was evaluated using the AlamarBlue method (Molecular Probes, Life Technologies) ([O’Brien et al., 2000]), and by measuring the release of the lactate dehydrogenase (LDH) into the culture supernatants using the Pierce LDH Cytotoxicity Assay (ThermoFisher Scientific, Waltham, MA, USA) ([Chan, Moriwaki & Rosa, 2013]) according to the manufacturer’s instructions. Briefly, 5 × 10^4 cells were seeded in 96-well microplates treated with the compounds, and incubated at 37 °C with 5% CO2. After 72 h of treatment, the cell viability was assessed. For the AlamarBlue method, the dye was added to each well to a final concentration of 10% and incubated overnight at 37 °C and 5% CO2. The fluorescence was measured with a 540/35 excitation filter and a 590/20 emission filter in a Synergy HT multi-mode microplate reader. The release of LDH from damaged cells into culture supernatants, as an indicator of cytotoxicity, was measured in serum-free medium. Here the amount of enzyme activity correlates to the number of damaged cells. The specific lysis was calculated as follows: (treated cells—spontaneous LDH release)/ (maximum LDH release—spontaneous LDH release) ×100.

[2] = test system: human monocyte-derived macrophages; assay: Cytotoxicity, AlamarBlue method; type: cell-based; conditions: human, 3 days
Description: as §1

[3] = test system: E. coli K-12 AG100 (wild-type); assay: MIC, broth microdilution; type: cell-based; conditions: Escherichia coli
[4] = test system: human monocyte-derived macrophages; assay: Cytotoxicity, LDH release; type: cell-based; conditions: human, 3 days
Description: as §1

E. coli AG100A = assay: EtBr efflux by real-time fluorometry; conditions: 20 µM
Description: Control tubes with only cells and cells with and without 0.4% glucose were included. The fluorescence was measured in a Rotor-Gene 3000 and the data was acquired every 30 s for 30 min at 37 °C. The efflux activity was quantified by comparing the fluorescence data obtained under conditions that promote efflux (presence of glucose and absence of efflux inhibitor) with the data from the control in which the bacteria are under conditions of no efflux (presence of an inhibitor and no energy source).

CN(C)CCCN1c2ccccc2Sc2ccc(Cl)cc21 [CPZ, chlorpromazine]
CC50 at 3 days [1]: 22.2 µM
CC90 at 3 days [1]: 37 µM
CC10 [2]: 13.36 µM
MIC ([3]; E. coli AG100 wild-type, read-out: MIC): 120 µg/mL and 338 µM
LDH release ([4]; 1.25 µM): 0.95%
LDH release ([4]; 20 µM): 24%
EtBr fluorescence (Channel Cycling A.530/585hp) (E. coli AG100A; cycle 1, + glucose): 3.827
EtBr fluorescence (Channel Cycling A.530/585hp) (E. coli AG100A; cycle 1, without glucose): 4.231
EtBr fluorescence (Channel Cycling A.530/585hp) (E. coli AG100A; cycle 2, + glucose): 3.676
EtBr fluorescence (Channel Cycling A.530/585hp) (E. coli AG100A; cycle 2, without glucose): 4.204
EtBr fluorescence (Channel Cycling A.530/585hp) (E. coli AG100A; cycle 3, + glucose): 3.648
EtBr fluorescence (Channel Cycling A.530/585hp) (E. coli AG100A; cycle 3, without glucose): 4.237
EtBr fluorescence (Channel Cycling A.530/585hp) (E. coli AG100A; cycle 4, without glucose): 4.314
EtBr fluorescence (Channel Cycling A.530/585hp) (E. coli AG100A; cycle 5, without glucose): 4.267
EtBr fluorescence (Channel Cycling A.530/585hp) (E. coli AG100A; cycle 6, without glucose): 4.36
EtBr fluorescence (Channel Cycling A.530/585hp) (E. coli AG100A; cycle 7, without glucose): 4.4
EtBr fluorescence (Channel Cycling A.530/585hp) (E. coli AG100A; cycle 8, without glucose): 4.486
EtBr fluorescence (Channel Cycling A.530/585hp) (E. coli AG100A; cycle 9, + glucose): 3.606
EtBr fluorescence (Channel Cycling A.530/585hp) (E. coli AG100A; cycle 9, without glucose): 4.551
EtBr fluorescence (Channel Cycling A.530/585hp) (E. coli AG100A; cycle 10, + glucose): 3.712
EtBr fluorescence (Channel Cycling A.530/585hp) (E. coli AG100A; cycle 10, without glucose): 4.522
EtBr fluorescence (Channel Cycling A.530/585hp) (E. coli AG100A; cycle 11, + glucose): 3.667
EtBr fluorescence (Channel Cycling A.530/585hp) (E. coli AG100A; cycle 11, without glucose): 4.614
EtBr fluorescence (Channel Cycling A.530/585hp) (E. coli AG100A; cycle 12, + glucose): 3.687
EtBr fluorescence (Channel Cycling A.530/585hp) (E. coli AG100A; cycle 12, without glucose): 4.652
EtBr fluorescence (Channel Cycling A.530/585hp) (E. coli AG100A; cycle 13, + glucose): 3.761
EtBr fluorescence (Channel Cycling A.530/585hp) (E. coli AG100A; cycle 13, without glucose): 4.775
EtBr fluorescence (Channel Cycling A.530/585hp) (E. coli AG100A; cycle 14, + glucose): 3.711
EtBr fluorescence (Channel Cycling A.530/585hp) (E. coli AG100A; cycle 14, without glucose): 4.879
EtBr fluorescence (Channel Cycling A.530/585hp) (E. coli AG100A; cycle 15, + glucose): 3.685
EtBr fluorescence (Channel Cycling A.530/585hp) (E. coli AG100A; cycle 15, without glucose): 4.89
EtBr fluorescence (Channel Cycling A.530/585hp) (E. coli AG100A; cycle 16, + glucose): 3.729
EtBr fluorescence (Channel Cycling A.530/585hp) (E. coli AG100A; cycle 16, without glucose): 4.933
EtBr fluorescence (Channel Cycling A.530/585hp) (E. coli AG100A; cycle 17, + glucose): 3.749
EtBr fluorescence (Channel Cycling A.530/585hp) (E. coli AG100A; cycle 17, without glucose): 4.963
EtBr fluorescence (Channel Cycling A.530/585hp) (E. coli AG100A; cycle 18, + glucose): 3.817
EtBr fluorescence (Channel Cycling A.530/585hp) (E. coli AG100A; cycle 18, without glucose): 5.023
EtBr fluorescence (Channel Cycling A.530/585hp) (E. coli AG100A; cycle 19, + glucose): 3.768
EtBr fluorescence (Channel Cycling A.530/585hp) (E. coli AG100A; cycle 19, without glucose): 5.067
EtBr fluorescence (Channel Cycling A.530/585hp) (E. coli AG100A; cycle 20, + glucose): 3.821
EtBr fluorescence (Channel Cycling A.530/585hp) (E. coli AG100A; cycle 20, without glucose): 5.072
EtBr fluorescence (Channel Cycling A.530/585hp) (E. coli AG100A; cycle 21, + glucose): 3.796
EtBr fluorescence (Channel Cycling A.530/585hp) (E. coli AG100A; cycle 21, without glucose): 5.224
EtBr fluorescence (Channel Cycling A.530/585hp) (E. coli AG100A; cycle 22, + glucose): 3.843
EtBr fluorescence (Channel Cycling A.530/585hp) (E. coli AG100A; cycle 22, without glucose): 5.19
EtBr fluorescence (Channel Cycling A.530/585hp) (E. coli AG100A; cycle 23, + glucose): 3.825
EtBr fluorescence (Channel Cycling A.530/585hp) (E. coli AG100A; cycle 23, without glucose): 5.293
EtBr fluorescence (Channel Cycling A.530/585hp) (E. coli AG100A; cycle 24, + glucose): 3.796
EtBr fluorescence (Channel Cycling A.530/585hp) (E. coli AG100A; cycle 24, without glucose): 5.381
EtBr fluorescence (Channel Cycling A.530/585hp) (E. coli AG100A; cycle 25, + glucose): 3.807
EtBr fluorescence (Channel Cycling A.530/585hp) (E. coli AG100A; cycle 25, without glucose): 5.403
EtBr fluorescence (Channel Cycling A.530/585hp) (E. coli AG100A; cycle 26, + glucose): 3.836
EtBr fluorescence (Channel Cycling A.530/585hp) (E. coli AG100A; cycle 26, without glucose): 5.546
EtBr fluorescence (Channel Cycling A.530/585hp) (E. coli AG100A; cycle 27, + glucose): 3.8908
EtBr fluorescence (Channel Cycling A.530/585hp) (E. coli AG100A; cycle 27, without glucose): 5.462
EtBr fluorescence (Channel Cycling A.530/585hp) (E. coli AG100A; cycle 28, + glucose): 3.846
EtBr fluorescence (Channel Cycling A.530/585hp) (E. coli AG100A; cycle 28, without glucose): 5.551
EtBr fluorescence (Channel Cycling A.530/585hp) (E. coli AG100A; cycle 29, + glucose): 3.901
EtBr fluorescence (Channel Cycling A.530/585hp) (E. coli AG100A; cycle 29, without glucose): 5.7035
EtBr fluorescence (Channel Cycling A.530/585hp) (E. coli AG100A; cycle 30, + glucose): 3.8738
EtBr fluorescence (Channel Cycling A.530/585hp) (E. coli AG100A; cycle 30, without glucose): 5.804
EtBr fluorescence (Channel Cycling A.530/585hp) (E. coli AG100A; cycle 31, + glucose): 3.964
EtBr fluorescence (Channel Cycling A.530/585hp) (E. coli AG100A; cycle 31, without glucose): 5.758
EtBr fluorescence (Channel Cycling A.530/585hp) (E. coli AG100A; cycle 32, + glucose): 3.895
EtBr fluorescence (Channel Cycling A.530/585hp) (E. coli AG100A; cycle 32, without glucose): 5.843
EtBr fluorescence (Channel Cycling A.530/585hp) (E. coli AG100A; cycle 33, + glucose): 3.921
EtBr fluorescence (Channel Cycling A.530/585hp) (E. coli AG100A; cycle 33, without glucose): 5.872
EtBr fluorescence (Channel Cycling A.530/585hp) (E. coli AG100A; cycle 34, + glucose): 3.877
EtBr fluorescence (Channel Cycling A.530/585hp) (E. coli AG100A; cycle 34, without glucose): 5.974
EtBr fluorescence (Channel Cycling A.530/585hp) (E. coli AG100A; cycle 35, + glucose): 3.838
EtBr fluorescence (Channel Cycling A.530/585hp) (E. coli AG100A; cycle 35, without glucose): 6.003
EtBr fluorescence (Channel Cycling A.530/585hp) (E. coli AG100A; cycle 36, + glucose): 3.873
EtBr fluorescence (Channel Cycling A.530/585hp) (E. coli AG100A; cycle 36, without glucose): 6.052
EtBr fluorescence (Channel Cycling A.530/585hp) (E. coli AG100A; cycle 37, + glucose): 3.865
EtBr fluorescence (Channel Cycling A.530/585hp) (E. coli AG100A; cycle 37, without glucose): 6.051
EtBr fluorescence (Channel Cycling A.530/585hp) (E. coli AG100A; cycle 38, + glucose): 3.927
EtBr fluorescence (Channel Cycling A.530/585hp) (E. coli AG100A; cycle 38, without glucose): 6.151
EtBr fluorescence (Channel Cycling A.530/585hp) (E. coli AG100A; cycle 39, + glucose): 3.914
EtBr fluorescence (Channel Cycling A.530/585hp) (E. coli AG100A; cycle 39, without glucose): 6.208
EtBr fluorescence (Channel Cycling A.530/585hp) (E. coli AG100A; cycle 40, + glucose): 4.038
EtBr fluorescence (Channel Cycling A.530/585hp) (E. coli AG100A; cycle 40, without glucose): 6.311
EtBr fluorescence (Channel Cycling A.530/585hp) (E. coli AG100A; cycle 41, + glucose): 3.929
EtBr fluorescence (Channel Cycling A.530/585hp) (E. coli AG100A; cycle 41, without glucose): 6.369
EtBr fluorescence (Channel Cycling A.530/585hp) (E. coli AG100A; cycle 42, + glucose): 3.925
EtBr fluorescence (Channel Cycling A.530/585hp) (E. coli AG100A; cycle 42, without glucose): 6.396
EtBr fluorescence (Channel Cycling A.530/585hp) (E. coli AG100A; cycle 43, + glucose): 3.906
EtBr fluorescence (Channel Cycling A.530/585hp) (E. coli AG100A; cycle 43, without glucose): 6.421
EtBr fluorescence (Channel Cycling A.530/585hp) (E. coli AG100A; cycle 44, + glucose): 3.836
EtBr fluorescence (Channel Cycling A.530/585hp) (E. coli AG100A; cycle 44, without glucose): 6.524
EtBr fluorescence (Channel Cycling A.530/585hp) (E. coli AG100A; cycle 45, without glucose): 6.6507
EtBr fluorescence (Channel Cycling A.530/585hp) (E. coli AG100A; cycle 46, without glucose): 6.69
EtBr fluorescence (Channel Cycling A.530/585hp) (E. coli AG100A; cycle 47, without glucose): 6.633
EtBr fluorescence (Channel Cycling A.530/585hp) (E. coli AG100A; cycle 48, without glucose): 6.748
EtBr fluorescence (Channel Cycling A.530/585hp) (E. coli AG100A; cycle 49, without glucose): 6.869
EtBr fluorescence (Channel Cycling A.530/585hp) (E. coli AG100A; cycle 50, without glucose): 6.908
EtBr fluorescence (Channel Cycling A.530/585hp) (E. coli AG100A; cycle 51, without glucose): 6.927
EtBr fluorescence (Channel Cycling A.530/585hp) (E. coli AG100A; cycle 52, without glucose): 6.871
EtBr fluorescence (Channel Cycling A.530/585hp) (E. coli AG100A; cycle 53, without glucose): 6.976
EtBr fluorescence (Channel Cycling A.530/585hp) (E. coli AG100A; cycle 54, without glucose): 6.9692
EtBr fluorescence (Channel Cycling A.530/585hp) (E. coli AG100A; cycle 55, without glucose): 7.074
EtBr fluorescence (Channel Cycling A.530/585hp) (E. coli AG100A; cycle 56, without glucose): 7.021
EtBr fluorescence (Channel Cycling A.530/585hp) (E. coli AG100A; cycle 57, without glucose): 7.172
EtBr fluorescence (Channel Cycling A.530/585hp) (E. coli AG100A; cycle 58, without glucose): 7.396
EtBr fluorescence (Channel Cycling A.530/585hp) (E. coli AG100A; cycle 59, without glucose): 7.291
EtBr fluorescence (Channel Cycling A.530/585hp) (E. coli AG100A; cycle 60, without glucose): 7.378
EtBr fluorescence (Channel Cycling A.530/585hp) (E. coli AG100A; cycle 61, without glucose): 7.37

NC(N)=NCCC[C@H](NC(=O)[C@@H](N)Cc1ccccc1)C(=O)Nc1ccc2ccccc2c1 [PAβN] (H-Phe-Arg-βNA)
MIC [3]: > 200 µg/mL and > 385 µM

From paper PMC5433425 (PeerJ, 2017)
